Measured values reported in US10918683B2, “Methods to reduce fat accumulation and oxidative damage in liver using green mango extracts and compounds obtained therefrom” (TCI CO., LTD., priority 2018, dated 2021).

System: HepG2 cells
Assay: Oil red O staining of fat accumulation in oleic acid-treated HepG2 cells
Type: cell-based, human
Conditions: 10 μg/mL compound (dissolved in DMSO)
Procedure: HepG2 cells were cultured at 37° C. under 5% carbon dioxide in DMEM supplemented with 10% FBS and 1% penicillin/streptomycin, hereinafter referred to as DMEM culture medium.
To prepare the oil red O staining solution, the dye, oil red O, was first dissolved in 100% isopropanol thoroughly to prepare a 30 mg/mL oil red O stock solution. To obtain a ready-to-use oil red O staining solution, the stock solution was diluted with double deionized water to a concentration of 18 mg/mL and filtered through a 0.22 μm filter immediately before use.
To obtain a DMEM containing oleic acid-BSA conjugate, 10 mg/mL BSA and 28 μg/mL oleic acid were added to a DMEM with 2% FBS and 1% penicillin/streptomycin. The resulting mixture was stirred for about 30 minutes to facilitate the conjugation between oleic acid and BSA and the formation of conjugates.
The neutral fat content of cells was determined by oil red O staining. Prior to staining, the cells after indicated treatment were washed with PBS and then fixed with 10% formaldehyde for 30 minutes. The fixed cells were washed once with PBS and rinsed with 50% isopropanol for 15 seconds. Thereafter, the cells were stained with the oil red O staining solution for 1 hour. […] Alternatively, the intracellular dye was dissolved with 100% isopropanol and quantified by spectrophotometry. […]

Structure (SMILES) | reduction of fat accumulation in HepG2 cells compared with oleic acid alone
O=C(OCC1OC(OC(=O)c2cc(O)c(O)c(O)c2)C(OC(=O)c2cc(O)c(O)c(O)c2)C(OC(=O)c2cc(O)c(O)c(O)c2)C1OC(=O)c1cc(O)c(O)c(O)c1)c1ccc(O)cc1 (centres unmarked) [formula (Ia)] | approximately 33%
O=C(OCC1OC(OC(=O)c2cc(O)c(O)c(O)c2)C(OC(=O)c2cc(O)c(O)c(O)c2)C(OC(=O)c2cc(O)c(O)c(O)c2)C1OC(=O)c1cc(O)c(O)c(O)c1)c1cc(O)c(O)c(O)c1 (centres unmarked) [formula (Ib), 1,2,3,4,6-penta-O-galloyl-glucopyranoside] | ~44%
